# Entries after “also recorded” stand apart in the source; their conditions may differ. Read-outs that look alike come from different tables or passages of the source.
# Assays:
# NF-κB [1] = experiment: Measurement of NF-κB activation using THP1-Blue NF-κB cells (SEAP); assay type: cell-based; conditions: for NF-κB activity (SAR discussion, in words): evaluated in both the presence and absence of LPS
# NF-κB [2] = experiment: cell-based NF-κB FRET assay; conditions: compound + LPS; two point normalized, compound 1 as 200%, LPS (10 ng/mL) as 100%
# Text: Site A was assigned the 4-substituent of thiazole ring, site B was the thiazole ring itself, site C was the central amide bond in the structure, site D was the benzene ring bearing 1,4-carboxyl and sulfamoyl group, site E was the sulfonamide functional group and site F was the amide substituent on the sulfamoyl group.
# THP-1 cells = experiment: Cell viability assay (MTT); assay type: cell-based; conditions: compound 5 μM alone, 18 h, normalized to DMSO as 100%
# Summary of the method: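 THP-1 cells in RPMI/10% FBS got compound at a final 5 μM (0.05% DMSO) for 18 h. MTT (0.5 mg/mL) was then added for 4 to 6 h, followed by SDS/HCl lysis overnight. Absorbance was read at 570 nm against 650 nm reference.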
# [3] = compound 5 μM + LPS, 20 h, two point normalized, compound 1 as 200%, LPS (10 ng/mL) as 100%, read-out: NF-κB SEAP Compound + LPS % Activation
# [4] = compound 5 μM alone, 20 h, two point normalized, compound 1 as 200%, LPS or DMSO as 100%, read-out: NF-κB SEAP Compound alone % Activation
smiles,measurement,setting,value
"CCCCN(CCCC)S(=O)(=O)c1ccc(C(=O)Nc2nc(-c3cc(C)ccc3C)cs2)cc1 [Compound 58c, 4-(N,N-dibutylsulfamoyl)-N-(4-(2,5-dimethylphenyl)thiazol-2-yl)benzamide]",activity at 5 µM,NF-κB [1]; [3],105%
same,activity at 5 µM,NF-κB [1]; [4],103%
same,"NF-κB activity (SAR discussion, in words)",NF-κB [1],lost activity
same,NF-κB FRET Compound + LPS % Activation,NF-κB [2],104.47%
same,MTT Compound alone % Viability,THP-1 cells,86.41%
"Cc1ccc(C)c(-c2csc(NC(=O)c3ccc(S(=O)(=O)NC4CCCCC4)cc3)n2)c1 [Compound 58e, 4-(N-cyclohexylsulfamoyl)-N-(4-(2,5-dimethylphenyl)thiazol-2-yl)benzamide]",activity at 5 µM,NF-κB [1]; [3],94.5%
same,activity at 5 µM,NF-κB [1]; [4],98.3%
same,"NF-κB activity (SAR discussion, in words)",NF-κB [1],inactive
same,NF-κB FRET Compound + LPS % Activation,NF-κB [2],52.23%
same,MTT Compound alone % Viability,THP-1 cells,93.65%
"CCCC1CCN(S(=O)(=O)c2ccc(C(=O)Nc3nc(-c4cc(C)ccc4C)cs3)cc2)CC1 [Compound 58h, N-(4-(2,5-dimethylphenyl)thiazol-2-yl)-4-((4-propylpiperidin-1-yl)sulfonyl)benzamide]",activity at 5 µM,NF-κB [1]; [3],248%
same,activity at 5 µM,NF-κB [1]; [4],517%
same,NF-κB activity when tested alone (in words),"NF-κB [1]; compound alone, without LPS",very potent
same,"NF-κB activity (SAR discussion, in words)",NF-κB [1],active; also recorded: most potent
same,NF-κB FRET Compound + LPS % Activation,NF-κB [2],218.16%
same,MTT Compound alone % Viability,THP-1 cells,111.27%
"CCCC#Cc1sc(NC(=O)c2ccc(S(=O)(=O)N3CCCCC3)cc2)nc1-c1cc(C)ccc1Br [Compound 64, N-(4-(2-bromo-5-methylphenyl)-5-(pent-1-yn-1-yl)thiazol-2-yl)-4-(piperidin-1-ylsulfonyl)benzamide]",activity at 5 µM,NF-κB [1]; [3],287%
same,activity at 5 µM,NF-κB [1]; [4],348%
same,"NF-κB activity (SAR discussion, in words)",NF-κB [1],very potent and showed better potency than compound 1
same,NF-κB FRET Compound + LPS % Activation,NF-κB [2],196.14%
same,MTT Compound alone % Viability,THP-1 cells,101.42%
"Cc1ccc(C)c(-c2ccc(NC(=O)c3ccc(S(=O)(=O)N4CCCCC4)cc3)cn2)c1 [Compound 18d, N-(6-(2,5-dimethylphenyl)pyridin-3-yl)-4-(piperidin-1-ylsulfonyl)benzamide]",activity at 5 µM,NF-κB [1]; [3],97.2%
same,activity at 5 µM,NF-κB [1]; [4],98.2%
same,"NF-κB activity (SAR discussion, in words)",NF-κB [1],none of these molecules that replaced the thiazole functionality were active
same,NF-κB FRET Compound + LPS % Activation,NF-κB [2],58.39%
same,MTT Compound alone % Viability,THP-1 cells,95.35%
"C#CCNS(=O)(=O)c1ccc(C(=O)Nc2nc(-c3cc(C)ccc3C)cs2)cc1 [Compound 72a, N-(4-(2,5-dimethylphenyl)thiazol-2-yl)-4-(N-(prop-2-yn-1-yl)sulfamoyl)benzamide]",activity at 5 µM,NF-κB [1]; [3],102%
same,activity at 5 µM,NF-κB [1]; [4],99.2%
same,"NF-κB activity (SAR discussion, in words)",NF-κB [1],lost their activity
same,NF-κB FRET Compound + LPS % Activation,NF-κB [2],121.36%
same,MTT Compound alone % Viability,THP-1 cells,87.46%
"Cc1ccccc1-c1csc(NC(=O)c2ccc(S(=O)(=O)N3CCCCC3)cc2)n1 [Compound 12b, 4-(piperidin-1-ylsulfonyl)-N-(4-(o-tolyl)thiazol-2-yl)benzamide]",activity at 5 µM,NF-κB [1]; [3],105%
same,activity at 5 µM,NF-κB [1]; [4],99.2%
same,"NF-κB activity (SAR discussion, in words)",NF-κB [1],inactive
same,NF-κB FRET Compound + LPS % Activation,NF-κB [2],100.13%
same,MTT Compound alone % Viability,THP-1 cells,95.69%
"Cc1ccc(N=[N+]=[N-])cc1-c1csc(NC(=O)c2ccc(S(=O)(=O)N3CCCCC3)cc2)n1 [Compound 67, N-(4-(5-azido-2-methylphenyl)thiazol-2-yl)-4-(piperidin-1-ylsulfonyl)benzamide]",activity at 5 µM,NF-κB [1]; [3],159%
same,activity at 5 µM,NF-κB [1]; [4],177%
same,"NF-κB activity (SAR discussion, in words)",NF-κB [1],retained activity
same,NF-κB FRET Compound + LPS % Activation,NF-κB [2],168.96%
same,MTT Compound alone % Viability,THP-1 cells,90.50%
"Cc1ccc2c(c1)-c1nc(NC(=O)c3ccc(S(=O)(=O)N4CCCCC4)cc3)sc1C2 [Compound 12r, N-(5-methyl-8H-indeno[1,2-d]thiazol-2-yl)-4-(piperidin-1-ylsulfonyl)benzamide]",activity at 5 µM,NF-κB [1]; [3],95.6%
same,activity at 5 µM,NF-κB [1]; [4],102%
same,"NF-κB activity (SAR discussion, in words)",NF-κB [1],weakly active
same,NF-κB FRET Compound + LPS % Activation,NF-κB [2],129.01%
same,MTT Compound alone % Viability,THP-1 cells,82.46%
"Cc1ccc(C)c(-c2c[nH]c(NC(=O)c3ccc(S(=O)(=O)N4CCCCC4)cc3)n2)c1 [Compound 18a, N-(4-(2,5-dimethylphenyl)-1H-imidazol-2-yl)-4-(piperidin-1-ylsulfonyl)benzamide]",activity at 5 µM,NF-κB [1]; [3],97.3%
same,activity at 5 µM,NF-κB [1]; [4],99.3%
same,"NF-κB activity (SAR discussion, in words)",NF-κB [1],none of these molecules that replaced the thiazole functionality were active
same,NF-κB FRET Compound + LPS % Activation,NF-κB [2],142.21%
same,MTT Compound alone % Viability,THP-1 cells,50.69%
"Cc1ccc(C)c(-c2nc(NC(=O)c3ccc(S(=O)(=O)N4CCCCC4)cc3)sc2C)c1 [Compound 18m, N-(4-(2,5-dimethylphenyl)-5-methylthiazol-2-yl)-4-(piperidin-1-ylsulfonyl)benzamide]",activity at 5 µM,NF-κB [1]; [3],179%
same,activity at 5 µM,NF-κB [1]; [4],159%
same,NF-κB FRET Compound + LPS % Activation,NF-κB [2],186.92%
same,MTT Compound alone % Viability,THP-1 cells,96.90%
"CCN(CC)c1sc(NC(=O)c2ccc(S(=O)(=O)N3CCCCC3)cc2)nc1-c1cc(C)ccc1C [Compound 18g, N-(5-(diethylamino)-4-(2,5-dimethylphenyl)thiazol-2-yl)-4-(piperidin-1-ylsulfonyl)benzamide]",activity at 5 µM,NF-κB [1]; [3],98.1%
same,activity at 5 µM,NF-κB [1]; [4],98%
same,"NF-κB activity (SAR discussion, in words)",NF-κB [1],completely inactive
same,NF-κB FRET Compound + LPS % Activation,NF-κB [2],92.64%
same,MTT Compound alone % Viability,THP-1 cells,94.30%
"CCCCc1sc(NC(=O)c2ccc(S(=O)(=O)N3CCCCC3)cc2)nc1-c1cc(C)ccc1C [Compound 18s, N-(5-butyl-4-(2,5-dimethylphenyl)thiazol-2-yl)-4-(piperidin-1-ylsulfonyl)benzamide]",activity at 5 µM,NF-κB [1]; [3],124%
same,activity at 5 µM,NF-κB [1]; [4],116%
same,"NF-κB activity (SAR discussion, in words)",NF-κB [1],retained activity
same,NF-κB FRET Compound + LPS % Activation,NF-κB [2],176.96%
same,MTT Compound alone % Viability,THP-1 cells,141.98%
"Cc1ccc(C)c(-c2csc(NC(=O)c3ccc(S(=O)(=O)N4CCNCC4)cc3)n2)c1 [Compound 58i, N-(4-(2,5-dimethylphenyl)thiazol-2-yl)-4-(piperazin-1-ylsulfonyl)benzamide]",activity at 5 µM,NF-κB [1]; [3],104%
same,activity at 5 µM,NF-κB [1]; [4],101%
same,"NF-κB activity (SAR discussion, in words)",NF-κB [1],inactive
same,NF-κB FRET Compound + LPS % Activation,NF-κB [2],101.27%
same,MTT Compound alone % Viability,THP-1 cells,75.86%
"CCSc1sc(NC(=O)c2ccc(S(=O)(=O)N3CCCCC3)cc2)nc1-c1cc(C)ccc1C [Compound 18k, N-(4-(2,5-dimethylphenyl)-5-(ethylthio)thiazo-2-yl)-4-(piperidin-1-ylsulfonyl)benzamide]",NF-κB SEAP Compound + LPS % Activation,"NF-κB [1]; compound 5 μM + LPS, 20 h, two point normalized, compound 1 as 200%, LPS (10 ng/mL) as 100%",104.47%
same,NF-κB SEAP Compound alone % Activation,"NF-κB [1]; compound 5 μM alone, 20 h, two point normalized, compound 1 as 200%, LPS or DMSO as 100%",100.75%
same,"NF-κB activity (SAR discussion, in words)",NF-κB [1],completely inactive
same,NF-κB FRET Compound + LPS % Activation,NF-κB [2],167.51%
same,MTT Compound alone % Viability,THP-1 cells,111.74%
"Cc1ccc(Br)cc1-c1csc(NC(=O)c2ccc(S(=O)(=O)N3CCCCC3)cc2)n1 [Compound 12e, N-(4-(5-bromo-2-methylphenyl)thiazol-2-yl)-4-(piperidin-1-ylsulfonyl)benzamide]",activity at 5 µM,NF-κB [1]; [3],213%
same,activity at 5 µM,NF-κB [1]; [4],207%
same,"NF-κB activity (SAR discussion, in words)",NF-κB [1],active
same,NF-κB FRET Compound + LPS % Activation,NF-κB [2],189.97%
same,MTT Compound alone % Viability,THP-1 cells,91.50%
"Cc1ccc(C)c(-c2csc(NCc3ccc(S(=O)(=O)N4CCCCC4)cc3)n2)c1 [Compound 34a, 4-(2,5-dimethylphenyl)-N-(4-(piperidin-1-ylsulfonyl)benzyl)thiazol-2-amine]",activity at 5 µM,NF-κB [1]; [3],102%
same,activity at 5 µM,NF-κB [1]; [4],99.1%
same,"NF-κB activity (SAR discussion, in words)",NF-κB [1],inactive
same,NF-κB FRET Compound + LPS % Activation,NF-κB [2],106.53%
same,MTT Compound alone % Viability,THP-1 cells,85.48%
"C#Cc1ccc(C)c(-c2csc(NC(=O)c3ccc(S(=O)(=O)N4CCCCC4)cc3)n2)c1 [Compound 12t, N-(4-(5-ethynyl-2-methylphenyl)thiazol-2-yl)-4-(piperidin-1-ylsulfonyl)benzamide]",activity at 5 µM,NF-κB [1]; [3],90%
same,activity at 5 µM,NF-κB [1]; [4],101%
same,"NF-κB activity (SAR discussion, in words)",NF-κB [1],inactive
same,NF-κB FRET Compound + LPS % Activation,NF-κB [2],88.20%
same,MTT Compound alone % Viability,THP-1 cells,82.42%
"Cc1ccc(C)c(-c2csc(NC(=O)c3ccc(S(=O)(=O)N4CCN(C(=O)OC(C)(C)C)CC4)cc3)n2)c1 [Compound 58f, tert-butyl 4-((4-((4-(2,5-dimethylphenyl)thiazol-2-yl)carbamoyl)phenyl)sulfonyl)piperazine-1-carboxylate]",activity at 5 µM,NF-κB [1]; [3],105%
same,activity at 5 µM,NF-κB [1]; [4],101%
same,"NF-κB activity (SAR discussion, in words)",NF-κB [1],inactive
same,NF-κB FRET Compound + LPS % Activation,NF-κB [2],95.64%
same,MTT Compound alone % Viability,THP-1 cells,81.23%
"CC(=O)N1CCN(S(=O)(=O)c2ccc(C(=O)Nc3nc(-c4cc(C)ccc4C)cs3)cc2)CC1 [Compound 58j, 4-((4-acetylpiperazin-1-yl)sulfonyl)-N-(4-(2,5-dimethylphenyl)thiazol-2-yl)benzamide]",activity at 5 µM,NF-κB [1]; [3],101%
same,activity at 5 µM,NF-κB [1]; [4],101%
same,"NF-κB activity (SAR discussion, in words)",NF-κB [1],inactive
same,NF-κB FRET Compound + LPS % Activation,NF-κB [2],90.73%
same,MTT Compound alone % Viability,THP-1 cells,72.09%
"Cc1ccc(C)c(-c2csc(NC(=O)c3ccc(S(=O)(=O)N4CCC5(CC4)N=N5)cc3)n2)c1 [Compound 72e, 4-((1,2,6-triazaspiro[2.5]oct-1-en-6-yl)sulfonyl)-N-(4-(2,5-dimethylphenyl)thiazol-2-yl)benzamide]",activity at 5 µM,NF-κB [1]; [3],168%
same,activity at 5 µM,NF-κB [1]; [4],144%
same,"NF-κB activity (SAR discussion, in words)",NF-κB [1],active
same,NF-κB FRET Compound + LPS % Activation,NF-κB [2],168.82%
same,MTT Compound alone % Viability,THP-1 cells,84.40%
